The text below walks through data of patent US20110165115A1, “SYNERGISTIC ATTRACTANTS FOR PESTIFEROUS SOCIAL INSECTS” (STERLING INTERNATIONAL INC., priority 2010, published 2011).

In test [1] the test system is Hippodarnia convergens antennae. Nature of the test: GC-EAD of synthetic HIPVs on beneficial insect antennae. To be noted: FIG. 6. How it is done:
(§1) Aeration samples of the cherry branches (damaged or undamaged/slightly damaged) were injected (3 μl) splitless into a Varian CP-3800 GC equipped with a polar column (HP-INNOWax; 30 m×0.53 mm×1.0 μm film thickness; Agilent Technologies, Wilmington, Del., USA) and a 1:1 effluent splitter that allowed simultaneous flame ionization detection (FID) and electroantennographic detection (EAD) of the European paper wasp (Polistes dominulus) worker antennae to the separated volatile compounds. Helium was used as the carrier gas, and the injector and detector temperatures were 250° C. and 300° C., respectively. Column temperature was 50° C. for 1 min, rising to 240° C. at 10° C./min, and then held for 10 min. The outlet for the EAD was held in a humidified air stream flowing at 0.5 m/sec over the antennal preparation. EAD recordings were made using silver wire-glass capillary electrodes filled with Beadle-Ephrussi Ringer on freshly cut antennae. The antennal signals were stored and analyzed on a PC equipped with a serial IDAC interface box and the program EAD ver. 2.5 (Syntech, Hilversum, The Netherlands). In addition, GC-EAD responses to a synthetic mixture (100 ng/μl each) containing nine known HIPVs including cis-3-hexen-1-ol, cis-3-hexenyl acetate, trans-β-ocimene, (E)-4,8-dimethyl-1,3,7-nonatriene, linalool, methyl salicylate, geranyl acetate, trans-β-caryophyllene and trans-β-farnesene were tested on the P. dominulus workers. (See FIG. 2.) The same chemicals were also tested on beneficial insect antennae from Chrysopa oculata, Myrmeleon crudelis, Podisus maculiventris, and Hippodarnia convergens. (See FIG. 6.) Antennally active peaks in the aeration samples were identified by GC-MS on an HP 6890 GC series coupled with an HP 5973 Mass Selective Detector using the same type of GC column and conditions as described above. Compounds were identified by comparison of retention times with those of authentic standards and with mass spectra of standards.

Test [2] has as its system Chrysopa oculata antennae. The description is as above. To be noted: FIG. 6. The procedure:
as §1

Test [3] deals with Myrmeleon crudelis antennae. The description is as above. The settings on record: FIG. 6. How it is done:
as §1

Test [4] concerns Podisus maculiventris antennae. Described as above. To be noted: FIG. 6. How it is done: as §1
Test [5] deals with V. acadica. Nature of the test: Field trapping Experiment 1, Rescue W•H•Y traps. It is filed as in vivo, Vespula acadica. The settings on record: Exp 1; HIPV added to WHY attractant in the top chamber, or WHY alone. How it is done:
(§2) Three field trapping experiments were carried out during late July to early August 2009, in residential and woody areas around Spokane, Wash., USA, using the newly marketed Rescue® W•H•Y traps (www.rescue.com). As used herein, the W•H•Y trap is a trap in accordance with the description of United States Patent Application Publication No. 2009/0151228. The W•H•Y trap has a top chamber and a bottom chamber. The top chamber is baited with two attractants—one of which is a solid contained in a vial (2-methyl-1-butanol) and the other a liquid mixed with water (acetic acid), herein referred to as the W•H•Y top attractant. The bottom chamber is baited with a liquid attractant (heptyl butyrate) poured onto a cotton pad, herein referred to as the W•H•Y bottom attractant. Separation of the top and bottom attractants (otherwise antagonistic to each other when released from the same chamber) in two chambers was a design feature of this trap and creates two focal attraction sources from one trap for different species of wasps, hornets, and yellowjackets. Traps were hung 1.5-2.0 m above the ground on either the fence or tree branches ca. 5 m apart within each trap line. For each trapping experiment, six sets of traps were deployed with their initial trap positions within each set being randomized. To minimize positional effects and obtain more replications, wasp collections and trap re-randomization were carried out when ≧10-20 wasps were caught in the best trap. Each replicate lasted several days depending on wasp flight activity. Captured wasps were removed from the traps and kept in the zip-bags before taking back to the laboratory for recording of the species, gender status, and catch.
Experiment 3 (Aug. 5-13, 2009) was conducted to determine the potential behavioral activity of different doses of (E)-4,8-dimethyl-1,3,7-nonatriene alone. The individual (or different doses) HIPVs were loaded into either polyethylene bags or centrifuge tube type of dispensers, and released from the top of the W•H•Y trap chamber. W•H•Y trap attractants (both top and bottom or top only) alone and water (top chamber only) were included in the test as positive and blank controls, respectively. The dispenser types, loading and release rates of the tested semiochemicals are described in Tables 1, 2 and 3.
(§3) Trap catch data were converted to proportion (P) of total captured wasps within each replicate. Data were then transformed by arcsin√P to meet the assumptions of normality and homogeneity of variances for ANOVA. Means were compared by ANOVA followed by the Ryan-Einot-Gabriel-Welsh (REGW) multiple Q test (SPSS 16.0 for Windows) at α=0.05.

Test [6] has as its system V. atropilosa. It is filed as in vivo, Vespula atropilosa. To be noted: Exp 1; HIPV added to WHY attractant in the top chamber, or WHY alone.
The subject of test [7] is V. consobrina. The format is in vivo, Vespula consobrina. The settings on record: Exp 1; HIPV added to WHY attractant in the top chamber, or WHY alone. How it is done:
as §2, with “catch. […]” for “catch.”
as §3

With `C=C/C=C(\C)CCC=C(C)C` [(E)-4,8-dimethyl-1,3,7-nonatriene], the EAD-response entry in test [1], in test [2], in test [3] and in test [4] was “strong EAD-responses” throughout. The “Total Yellowjacket Catches V. acadica” value in test [5] came out at 1. Besides, in test [6], the “Total Yellowjacket Catches V. atropilosa” value is on record as 3. For the same compound, in test [7], the “Total Yellowjacket Catches V. consobrina” value turned out to be 0.
Regarding `COC(=O)c1ccccc1O` [Methyl Salicylate, methyl salicylate], the EAD-response result in test [1], in test [2], in test [3] and in test [4] was “strong EAD-responses” throughout. The “Total Yellowjacket Catches V. acadica” value in test [5] is recorded as 0. Besides, the “Total Yellowjacket Catches V. atropilosa” value in test [6] was 4. Also, the “Total Yellowjacket Catches V. consobrina” value in test [7] was 2.
Consider `CC/C=C\CCO` [Z-3-Hexanol, (Z)-3-hexen-1-ol], for which the “Total Yellowjacket Catches V. acadica” value in test [5] came to 0. Also, the “Total Yellowjacket Catches V. atropilosa” value in test [6] is recorded as 0. Further, the “Total Yellowjacket Catches V. consobrina” value in test [7] is recorded as 0.
For `CC/C=C\CCOC(C)=O` [Z-3-Hexenyl Acetate, (Z)-3-hexenyl acetate], the EAD-response entry in test [1], in test [2], in test [3] and in test [4] was “strong EAD-responses” each time. For the same compound, the “Total Yellowjacket Catches V. acadica” value in test [5] is given as 1. In addition, in test [6], the “Total Yellowjacket Catches V. atropilosa” value is given as 0. In test [7], the “Total Yellowjacket Catches V. consobrina” value was 1.
